Laboratory results reported in patent publication US5608095A, “Alkyl-4-silyl-phenols and esters thereof as antiatherosclerotic agents” (Hoechst Marion Roussel, Inc., priority 1996, dated 1997).
Where two headings read alike, the source gives them in different places.

Columns and labels:
[1] = Animal parameters (food, body weight, liver weight, mortality) in rats; assay type: in vivo, male Sprague-Dawley rats; details: 4 days; for mortality at 96 h: in vivo, po, read-out: mortality (deaths per group); for mortality at 96 h / body wt., percent of control / lw/bw (liver weight/body weight), percent of control: rat
Source text: (§1) A typical experiment consisted of 4-6 groups of rats (N=5 per group) with 1 group being a control which received no MDL compound and the other groups being treated with 0.3% MDL compound. Some of the compounds were either repeated at 0.3% or evaluated again at the lower dose of 0.1%. Male Sprague-Dawley rats, 50-100 g, (Harlan Laboratories, Indianapolis, Ind.) were housed in groups of 5, fed ad libitum water and Purina Rodent chow (#5002) with or without MDL compound as a dietary admixture for 4 days. Dietary admixtures (0.3%) were made by mixing 1.2 grams of an MDL compound with 400 grams of Purina rodent chow (#5002). The MDL compound was mixed with approximately 50 grams of food using a mortar and pestle. This was added to the remainder of the food and mixed for 3 hours on a rotary mixer. In the morning of day 5, non-fasted rats were anesthetized with carbon dioxide, and blood was collected by cardiac puncture. Rats were sacrificed by cervical dislocation. Body weights and liver weights were recorded in grams. Food consumption was recorded as grams.cndot.day^-1.cndot.rat^-1. Deaths were recorded as mortality. Aliquots of fresh serum were used for clinical chemistries, thiobarbituric acid reactive substances (TBARS) and conjugated diene measurements. Aliquots of serum (~0.5mL) and whole livers were frozen at -20° C. for compound and metabolite concentration determination at a later time.

[2] = system: oxidation of serum lipids; assay: TBARS assay, rat serum; assay type: in vivo, male Sprague-Dawley rats; details: po, 96 h, read-out: TBARS, percent of control
Source text: as §1
In this assay the oxidation of serum lipids is initiated with CuSO4, resulting in the formation of aldehydes, such as malondialdehyde (MDA). Upon incubation with thiobarbituric acid, the absorbance of the aldehydes can be detected at 530-540 nm. As stated in the previous example, TBARS values which are lower than control serum values indicate the relative ability of a test compound to inhibit the oxidation of lipids in a sample. TBARS were measured as follows: 100 μL of serum were mixed with 400 μL of a 5 mmol CuSO4 solution and incubated at 37° C. for 3 hr. The reactions were stopped by addition of 1.0 mL of 20% trichloroacetic acid. Then 1.0 mL of 0.67% thiobarbituric acid in 0.05N sodium hydroxide was added, mixed, and the samples incubated for 30 min at 90° C. Samples were centrifuged briefly to pellet undissolved material, and the supernatants were transferred to a 96-well microtiter plate. Absorbances were measured at 540 nm using a Biotek model EL311 microplate reader. The nmoles of MDA produced were calculated from a standard curve of 0 to 10 nmoles of MDA prepared from malonaldehyde bis(dimethylacetal). Serum samples from treated rats were compared to serum samples from control rats that received no MDL compound.

oxidation of lipids = assay: Conjugated diene determination, rat serum; assay type: in vivo, male Sprague-Dawley rats; details: pooled rat serum, 4 days, mean of 2 determinations
Source text: as §1
Conjugated diene lag phase is another indicator of the oxidation of lipids. Lipids exposed to Cu^++ form conjugated dienes that absorb ultraviolet light in the range of 230 to 235 nm. The lag phase of diene formation gives an indication of the amount of oxidation of the lipids. A lag phase longer than control samples indicate inhibition of the oxidation. Conjugated diene lay phase was determined using a Varian DMS200 spectrophotometer (fitted with a constant temperature, 5 cuvette sample changer) at 30° C. Twenty (20) μL of pooled serum were added to cuvettes containing 3.0 mL phosphate buffered saline, pH 7.5, and mixed. The absorbances of all cuvettes were measured, and the instrument baseline was set to zero using the lowest absorbing sample. Next, 100 μL of 1 mmol CuSO4 were added and immediately mixed. The absorbance of each cuvette was recorded at 2 min intervals for a period of 840 min. The data were captured and transferred to a Microsoft EXCEL® spreadsheet where the curves were smoothed and differentials obtained. Lag times were determined mathematically as minutes. Serum samples were pooled (N=5); data presented are the mean values of 2 determinations. Serum samples from treated rats were compared to serum samples from control rats that received no MDL compound.

[3] = system: serum cholesterol, LDL, HDL, triglycerides; assay: Serum lipids and lipoprotein cholesterol in cholesterol-fed female New Zealand White rabbits; assay type: in vivo; details: Oryctolagus cuniculus, po; for response vs control in vivo at 0.4 %: 168 h; for response vs control in vivo at 0.6 %: 336 h, diet 0.6%, 14 days
Procedure, shortened: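 Female New Zealand White rabbits fed 0.2% cholesterol chow sprayed with 0.4% compound (some at 0.26% or 0.6%) for 7 days (0.6% arm, 14 days). Fasted serum: total cholesterol and triglycerides enzymatically (mg/dL); VLDL/LDL/HDL separated by Sepharose 6HR gel-filtration HPLC, post-column cholesterol reagent at 37 °C, A500.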

[4] = rabbit serum, diet 0.4%, 7 days, read-out: HDL cholesterol, percent of control
[5] = rabbit serum, diet 0.4%, 7 days, read-out: LDL cholesterol, percent of control
[6] = rabbit serum, diet 0.4%, 7 days, read-out: TRIG (triglycerides), percent of control
[7] = rabbit serum, diet 0.4%, 7 days, read-out: chol tot. (total cholesterol), percent of control

| SMILES | food (grams eaten per day per rat), percent of control ([1]; diet 0.3%) [%] | mortality at 96 h ([1]; diet 0.3%) [%] | body wt., percent of control ([1]; diet 0.3%) [%] | lw/bw (liver weight/body weight), percent of control ([1]; diet 0.3%) [%] | response vs control in vivo at 0.3 % ([2]; Rattus norvegicus) [%] | response vs control in vivo at 0.3 % ([2]; rat serum, diet 0.3%, 4 days) [%] | response vs control in vivo at 0.4 % [3, 4] [%] | response vs control in vivo at 0.4 % [3, 5] [%] | response vs control in vivo at 0.4 % [3, 6] [%] | response vs control in vivo at 0.4 % [3, 7] [%] | food (grams eaten per day per rat), percent of control ([1]; diet 0.1%) [%] | mortality at 96 h ([1]; diet 0.1%) [%] | body wt., percent of control ([1]; diet 0.1%) [%] | lw/bw (liver weight/body weight), percent of control ([1]; diet 0.1%) [%] | other results |
| --- | --- | --- | --- | --- | --- | --- | --- | --- | --- | --- | --- | --- | --- | --- | --- |
| CC(C)(C)c1cc(OC[Si](C)(C)c2ccccc2)cc(C(C)(C)C)c1OC(=O)CCC(=O)O [MDL 103,076, 2,6-Di-t-butyl-4-[(dimethylphenylsilyl)methyloxy]phenol succinic acid ester] | 93 | 0 | 105 | 110 | 107 |  |  |  |  |  |  |  |  |  |  |
| CC(C)(C)c1cc(OC[Si](C)(C)c2ccccc2)c(C(C)(C)C)cc1O [MDL 104,962, 2,5-Di-t-butyl-4-[(dimethylphenylsilyl)methyloxy]phenol] | 74 | 0 | 95 | 103 |  | 25 | 163 | 105 | 159 | 118 |  |  |  |  | CONJ. DIENE (conjugated diene lag phase) (oxidation of lipids; diet 0.3%): 320 min |
| CC(=O)Oc1ccc(OC[Si](C)(C)c2ccccc2)cc1C(C)(C)C [MDL 105,443, 2-t-Butyl-4-[(dimethylphenylsilyl)methyloxy]phenol acetic acid ester] | 84 | 0 | 95 | 118 |  | 14 | 115 | 97 | 127 | 98 | 100 | 0 | 101 | 110 | CONJ. DIENE (conjugated diene lag phase) (oxidation of lipids; diet 0.1%): 151 min; response vs control in vivo at 0.1 % ([2]; rat serum, diet 0.1%, 4 days): 78% |
| CC(C)(C)c1cc(OC[Si](C)(c2ccccc2)c2ccccc2)cc(C(C)(C)C)c1O [MDL 104,599, 2,6-Di-t-butyl-4-[(diphenylmethylsilyl)methloxy]phenol] | 103 | 0 | 93 | 107 |  | 34 | 105 | 71 | 64 | 76 |  |  |  |  |  |
| COc1ccc([Si](C)(C)COc2ccc(O)c(C(C)(C)C)c2)cc1 [MDL 106,834, 2-t-Butyl-4-[(dimethyl-p-methoxylphenylsilyl)methyloxy]phenol] | 91 | 0 | 95 | 132 |  | 31 | 61 | 89 | 98 | 67 |  |  |  |  | CONJ. DIENE (conjugated diene lag phase) (oxidation of lipids; diet 0.3%): 492 min |
| CC(C)(C)c1cc(SC[Si](C)(C)c2ccccc2)cc(C(C)(C)C)c1OC(=O)CCC(=O)O [MDL 103,141, 2,6-Di-t-butyl-4-[(dimethylphenylsilyl)methylthio]phenol sucinic acid ester] | 87 | 0 | 91 | 96 | 113 |  |  |  |  |  |  |  |  |  |  |
| CC(C)(C)c1cc(OC[Si](C)(C)c2ccccc2)ccc1O [MDL 103,491, 2-t-Butyl-4-[(dimethylphenylsilyl)methyloxy]phenol] | 89 | 0 | 100 | 130 |  | 34 | 103 | 81 | 134 | 85 | 92 | 0 | 95 | 106 | CONJ. DIENE (conjugated diene lag phase) (oxidation of lipids; diet 0.1%): 168 min; response vs control in vivo at 0.1 % ([2]; rat serum, diet 0.1%, 4 days): 70%; response vs control in vivo at 0.6 % ([3]; rabbit serum, read-out: TRIG (triglycerides), percent of control): 216%; response vs control in vivo at 0.6 % ([3]; rabbit serum, read-out: chol tot. (total cholesterol), percent of control): 139% |
| Cc1cc(OC[Si](C)(C)c2ccccc2)c(C)c(C)c1O [MDL 105,314, 2,3,6-Trimethyl-4-[(dimethylphenylsdilyl)methloxy]phenol] | 109 | 0 | 111 | 118 | 85 |  |  |  |  |  |  |  |  |  |  |
| CC(C)(C)c1cc(OC[Si](C)(C)c2ccc(C(F)(F)F)cc2)cc(C(C)(C)C)c1O [MDL 105,975, 2,6-Di-t-butyl-4-[(dimethyl-4-trifluoromethylphenylsilyl)methyloxy]phenol] | 98 | 0 | 100 | 113 | 24 |  |  |  |  |  | 106 | 0 | 98 | 105 | response vs control in vivo at 0.1 % ([2]; Rattus norvegicus): 67%; response vs control in vivo at 0.4 % ([3]; read-out: HDL cholesterol, percent of control): 76%; response vs control in vivo at 0.4 % ([3]; read-out: LDL cholesterol, percent of control): 77%; response vs control in vivo at 0.4 % ([3]; read-out: TRIG (triglycerides), percent of control): 143%; response vs control in vivo at 0.4 % ([3]; read-out: chol tot. (total cholesterol), percent of control): 69% |
| CC(=O)Oc1c(C(C)(C)C)cc(OC[Si](C)(C)c2ccccc2)cc1C(C)(C)C [MDL 103,377, 2,6-Di-t-butyl-4-[(dimethylphenylsilyl)methyloxy]phenol acetic acid ester] | 82 | 0 | 97 | 105 |  | 71 |  |  |  |  |  |  |  |  |  |
